Data: PubChem BioAssay (NCI)
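Results reflect a 48-hour exposure of cells in 96-well plates to compound at five concentrations. Here, GI50 denotes the concentration required for 50% inhibition of growth. The concentration for full growth arrest is given as TGI.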

Columns and labels:
Test in all cases: growth of human tumour cells (NCI), 48 h
[1] = tested on: 786-0 renal
[2] = tested on: A498 renal
[3] = tested on: A549 NSCLC
[4] = tested on: ACHN renal
[5] = tested on: BT-549 breast
[6] = tested on: CAKI-1 renal
[7] = tested on: CCRF-CEM leukemia
[8] = tested on: COLO 205 colon
[9] = tested on: DU-145 prostate
[10] = tested on: EKVX NSCLC
[11] = tested on: HCC-2998 colon
[12] = tested on: HCT-116 colon
[13] = tested on: HCT-15 colon
[14] = tested on: HL-60(TB) leukemia
[15] = tested on: HOP-62 NSCLC
[16] = tested on: HOP-92 NSCLC
[17] = tested on: HS 578T breast
[18] = tested on: HT29 colon
[19] = tested on: IGROV1 ovarian
[20] = tested on: K-562 leukemia
[21] = tested on: KM12 colon
[22] = tested on: LOX IMVI melanoma
[23] = tested on: M14 melanoma
[24] = tested on: MALME-3M melanoma
[25] = tested on: MCF7 breast
[26] = tested on: MDA-MB-231 breast
[27] = tested on: MDA-MB-435
[28] = tested on: MDA-MB-468 breast
[29] = tested on: MOLT-4 leukemia
[30] = tested on: NCI-H226 lung
[31] = tested on: NCI-H23 lung
[32] = tested on: NCI-H460 lung
[33] = tested on: NCI-H522 lung
[34] = tested on: NCI/ADR-RES ovarian
[35] = tested on: OVCAR-3 ovarian
[36] = tested on: OVCAR-4 ovarian
[37] = tested on: OVCAR-5 ovarian
[38] = tested on: OVCAR-8 ovarian
[39] = tested on: PC-3 prostate
[40] = tested on: RPMI-8226 leukemia
[41] = tested on: RXF 393 renal
[42] = tested on: SF-268 CNS
[43] = tested on: SF-295 CNS
[44] = tested on: SF-539 CNS
[45] = tested on: SK-MEL-2 melanoma
[46] = tested on: SK-MEL-28 melanoma
[47] = tested on: SK-MEL-5 melanoma
[48] = tested on: SK-OV-3 ovarian
[49] = tested on: SN12C renal
[50] = tested on: SNB-19 CNS
[51] = tested on: SNB-75 CNS
[52] = tested on: SR leukemia
[53] = tested on: SW-620 colon
[54] = tested on: T-47D breast
[55] = tested on: TK-10 renal
[56] = tested on: U251 CNS
[57] = tested on: UACC-257 melanoma
[58] = tested on: UACC-62 melanoma
[59] = tested on: UO-31 renal

`O=C(COc1ccc(NC(=O)Nc2ccc(Cl)c(Cl)c2)cc1)N=Nc1c(O)[nH]c2ccccc12` showed a GI50 [1] of 2.69 µM, a TGI [1] of 6.27 µM and a GI50 [2] of 10.5 µM. The TGI [2] was 23.2 µM, the GI50 [3] was 2.97 µM and the TGI [3] was 8.33 µM. For the same compound, the GI50 [4] was 7.78 µM, the TGI [4] was 36.2 µM and the GI50 [5] was 13.7 µM. For the same compound, the TGI [5] was 29.7 µM, the GI50 [6] was 4.69 µM and the TGI [6] was 17.1 µM. It also gave a GI50 [7] of 3.97 µM, a TGI [7] of 20.8 µM and a GI50 [8] of 2.19 µM. For the same compound, the TGI [8] was 5.18 µM, the GI50 [9] was 3.29 µM and the TGI [9] was 18.7 µM. It also gave a GI50 [10] of 6.11 µM, a TGI [10] of 28 µM and a GI50 [11] of 5.31 µM. The TGI [11] was 18.1 µM, the GI50 [12] was 3.22 µM and the TGI [12] was 10.3 µM. It also gave a GI50 [13] of 46.8 µM, a TGI [13] of over 100 µM and a GI50 [14] of 20.8 µM. For the same compound, the TGI [14] was 71.6 µM, the GI50 [15] was 2.34 µM and the TGI [15] was 5.82 µM. It also gave a GI50 [16] of 2.58 µM, a TGI [16] of 9.45 µM and a GI50 [17] of 3.06 µM. For the same compound, the TGI [17] was 12 µM, the GI50 [18] was 1.97 µM and the TGI [18] was 4 µM. The GI50 [19] was 4.59 µM, the TGI [19] was 17.4 µM and the GI50 [20] was 3.46 µM. The TGI [20] was 17.9 µM, the GI50 [21] was 2.87 µM and the TGI [21] was 11.2 µM. It also gave a GI50 [22] of 2.79 µM, a TGI [22] of 9.02 µM and a GI50 [23] of 2.63 µM. For the same compound, the TGI [23] was 8.58 µM, the GI50 [24] was 1.83 µM and the TGI [24] was 3.76 µM. For the same compound, the GI50 [25] was 2.49 µM, the TGI [25] was 7.48 µM and the GI50 [26] was 1.96 µM. The TGI [26] was 4.7 µM, the GI50 [27] was 2.05 µM and the TGI [27] was 4.8 µM. The GI50 [28] was 1.8 µM, the TGI [28] was 3.8 µM and the GI50 [29] was 3.67 µM. It also gave a TGI [29] of 19.8 µM, a GI50 [30] of 2.76 µM and a TGI [30] of 10.8 µM. For the same compound, the GI50 [31] was 2.91 µM, the TGI [31] was 8.31 µM and the GI50 [32] was 1.84 µM. For the same compound, the TGI [32] was 3.99 µM, the GI50 [33] was 2.49 µM and the TGI [33] was 8.06 µM. For the same compound, the GI50 [34] was over 100 µM, the TGI [34] was over 100 µM and the GI50 [35] was 2.02 µM. For the same compound, the TGI [35] was 4.67 µM, the GI50 [36] was 2.47 µM and the TGI [36] was 8.09 µM. It also gave a GI50 [37] of 3.39 µM, a TGI [37] of 13.7 µM and a GI50 [38] of 2.1 µM. For the same compound, the TGI [38] was 4.84 µM, the GI50 [39] was 2.01 µM and the TGI [39] was 6.24 µM. For the same compound, the GI50 [40] was 5.32 µM, the TGI [40] was 29.8 µM and the GI50 [41] was 2 µM. It also gave a TGI [41] of 7.65 µM, a GI50 [42] of 2.44 µM and a TGI [42] of 6.14 µM. It also gave a GI50 [43] of 2.23 µM, a TGI [43] of 5.45 µM and a GI50 [44] of 1.97 µM. It also gave a TGI [44] of 4.38 µM, a GI50 [45] of 12.1 µM and a TGI [45] of 25.9 µM. It also gave a GI50 [46] of 2.12 µM, a TGI [46] of 5.07 µM and a GI50 [47] of 4.73 µM. The TGI [47] was 16.7 µM, the GI50 [48] was 3.28 µM and the TGI [48] was 11.8 µM. For the same compound, the GI50 [49] was 1.77 µM, the TGI [49] was 3.77 µM and the GI50 [50] was 2.89 µM. It also gave a TGI [50] of 10.5 µM, a GI50 [51] of 1.65 µM and a TGI [51] of 5.09 µM. For the same compound, the GI50 [52] was 4.65 µM, the TGI [52] was 32.9 µM and the GI50 [53] was 1.72 µM. It also gave a TGI [53] of 3.79 µM, a GI50 [54] of 10.6 µM and a TGI [54] of 25.2 µM. For the same compound, the GI50 [55] was 10.6 µM, the TGI [55] was 28.6 µM and the GI50 [56] was 1.77 µM. The TGI [56] was 3.32 µM, the GI50 [57] was 2.96 µM and the TGI [57] was 10 µM. For the same compound, the GI50 [58] was 3.55 µM, the TGI [58] was 13.8 µM and the GI50 [59] was 39 µM. It also gave a TGI [59] of over 100 µM.
